Data reported in the supplement of paper PMC10307832.

Key:
Assay in all cases: relative viability (nuclei count vs DMSO), 5 days (fraction); higher = more cells survive
[1] = test system: HARA
Procedure, shortened: (§1)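 Medians of duplicate plates are given as relative viability. That measure is the nuclei count in treated wells divided by the count in vehicle wells. Counts were taken on 4× images of lung cancer cell lines in 1536-well plates, 5 days after pin-tool dosing the day after seeding with one drug alone or a fixed anchor-drug dose plus five library-drug doses (not always all listed) in √10 steps.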

[2] = test system: HCC-15
Procedure, shortened: as §1

[3] = test system: HOP-62
Procedure, shortened: as §1

[4] = test system: NCI-H1355
Procedure, shortened: as §1

[5] = test system: NCI-H1395
Procedure, shortened: as §1

[6] = test system: NCI-H1734
Procedure, shortened: as §1

[7] = test system: NCI-H1755
Procedure, shortened: as §1

[8] = test system: NCI-H1792
Procedure, shortened: as §1

[9] = test system: NCI-H1793
Procedure, shortened: as §1

[10] = test system: NCI-H1993
Procedure, shortened: as §1

[11] = test system: NCI-H2170
Procedure, shortened: as §1

[12] = test system: NCI-H2347
Procedure, shortened: as §1

[13] = test system: NCI-H358
Procedure, shortened: as §1

[14] = test system: NCI-H522
Procedure, shortened: as §1

[15] = test system: NCI-H647
Procedure, shortened: as §1

[16] = test system: NCI-H838
Procedure, shortened: as §1

O=c1cc(N2CCOCC2)oc2c(-c3cccc4c3sc3ccccc34)cccc12 + NC(=O)Nc1cc(-c2cccc(F)c2)sc1C(=O)N[C@H]1CCCNC1 [AZD7762] (partner 0.2 µM)
relative viability ([1]; first compound 0.01 µM): 0.501
relative viability ([1]; first compound 0.03162 µM): 0.303
relative viability ([1]; first compound 0.1 µM): 0.302
relative viability ([1]; first compound 0.3162 µM): 0.343
relative viability ([1]; first compound 1 µM): 0.357
relative viability ([2]; first compound 0.01 µM): 1.23
relative viability ([2]; first compound 0.03162 µM): 1.46
relative viability ([2]; first compound 0.1 µM): 1.3
relative viability ([2]; first compound 0.3162 µM): 1.26
relative viability ([2]; first compound 1 µM): 1.54
relative viability ([3]; first compound 0.01 µM): 0.514
relative viability ([3]; first compound 0.03162 µM): 0.574
relative viability ([3]; first compound 0.1 µM): 0.188
relative viability ([3]; first compound 0.3162 µM): 0.745
relative viability ([3]; first compound 1 µM): 0.689
relative viability ([4]; first compound 0.01 µM): 0.726
relative viability ([4]; first compound 0.03162 µM): 0.676
relative viability ([4]; first compound 0.1 µM): 0.255
relative viability ([4]; first compound 0.3162 µM): 0.903
relative viability ([4]; first compound 1 µM): 0.72
relative viability ([5]; first compound 0.03162 µM): 0.403
relative viability ([5]; first compound 0.1 µM): 0.357
relative viability ([5]; first compound 0.3162 µM): 0.428
relative viability ([5]; first compound 1 µM): 0.372
relative viability ([6]; first compound 0.01 µM): 0.604
relative viability ([6]; first compound 0.03162 µM): 0.568
relative viability ([6]; first compound 0.1 µM): 0.112
relative viability ([6]; first compound 0.3162 µM): 0.596
relative viability ([6]; first compound 1 µM): 0.494
relative viability ([7]; first compound 0.01 µM): 0.473
relative viability ([7]; first compound 0.03162 µM): 0.417
relative viability ([7]; first compound 0.1 µM): 0.427
relative viability ([7]; first compound 0.3162 µM): 0.434
relative viability ([7]; first compound 1 µM): 0.487
relative viability ([8]; first compound 0.01 µM): 0.75
relative viability ([8]; first compound 0.03162 µM): 0.682
relative viability ([8]; first compound 0.3162 µM): 0.673
relative viability ([8]; first compound 1 µM): 0.733
relative viability ([9]; first compound 0.01 µM): 0.593
relative viability ([9]; first compound 0.03162 µM): 0.38
relative viability ([9]; first compound 0.1 µM): 0.233
relative viability ([9]; first compound 0.3162 µM): 0.505
relative viability ([9]; first compound 1 µM): 0.464
relative viability ([10]; first compound 0.01 µM): 0.832
relative viability ([10]; first compound 0.03162 µM): 0.764
relative viability ([10]; first compound 0.1 µM): 0.779
relative viability ([10]; first compound 0.3162 µM): 0.692
relative viability ([10]; first compound 1 µM): 0.715
relative viability ([11]; first compound 0.01 µM): 0.78
relative viability ([11]; first compound 0.03162 µM): 0.945
relative viability ([11]; first compound 0.1 µM): 0.734
relative viability ([11]; first compound 0.3162 µM): 0.842
relative viability ([11]; first compound 1 µM): 0.852
relative viability ([12]; first compound 0.01 µM): 0.843
relative viability ([12]; first compound 0.03162 µM): 0.791
relative viability ([12]; first compound 0.1 µM): 0.601
relative viability ([12]; first compound 0.3162 µM): 0.714
relative viability ([12]; first compound 1 µM): 0.601
relative viability ([13]; first compound 0.01 µM): 0.49
relative viability ([13]; first compound 0.03162 µM): 0.517
relative viability ([13]; first compound 0.1 µM): 0.354
relative viability ([13]; first compound 0.3162 µM): 0.445
relative viability ([13]; first compound 1 µM): 0.519
relative viability ([14]; first compound 0.01 µM): 0.737
relative viability ([14]; first compound 0.03162 µM): 0.894
relative viability ([14]; first compound 0.1 µM): 0.504
relative viability ([14]; first compound 0.3162 µM): 0.967
relative viability ([14]; first compound 1 µM): 0.775
relative viability ([15]; first compound 0.01 µM): 0.371
relative viability ([15]; first compound 0.03162 µM): 0.486
relative viability ([15]; first compound 0.1 µM): 0.0676
relative viability ([15]; first compound 0.3162 µM): 0.515
relative viability ([15]; first compound 1 µM): 0.363
relative viability ([16]; first compound 0.01 µM): 0.918
relative viability ([16]; first compound 0.03162 µM): 0.963
relative viability ([16]; first compound 0.1 µM): 0.934
relative viability ([16]; first compound 0.3162 µM): 0.93
relative viability ([16]; first compound 1 µM): 0.924

CCN(CC)CCCCNc1ncc2cc(-c3cc(OC)cc(OC)c3)c(NC(=O)NC(C)(C)C)nc2n1 + NC(=O)Nc1cc(-c2cccc(F)c2)sc1C(=O)N[C@H]1CCCNC1 [AZD7762] (partner 0.2 µM)
relative viability ([1]; first compound 0.01 µM): 0.245
relative viability ([1]; first compound 0.03162 µM): 0.376
relative viability ([1]; first compound 0.1 µM): 0.327
relative viability ([1]; first compound 0.3162 µM): 0.277
relative viability ([1]; first compound 1 µM): 0.241
relative viability ([2]; first compound 0.01 µM): 1.22
relative viability ([2]; first compound 0.03162 µM): 1.17
relative viability ([2]; first compound 0.1 µM): 1.22
relative viability ([2]; first compound 0.3162 µM): 1.37
relative viability ([2]; first compound 1 µM): 1.12
relative viability ([3]; first compound 0.01 µM): 0.343
relative viability ([3]; first compound 0.03162 µM): 0.666
relative viability ([3]; first compound 0.1 µM): 0.939
relative viability ([3]; first compound 0.3162 µM): 0.684
relative viability ([3]; first compound 1 µM): 0.431
relative viability ([4]; first compound 0.01 µM): 0.809
relative viability ([4]; first compound 0.03162 µM): 0.776
relative viability ([4]; first compound 0.1 µM): 0.766
relative viability ([4]; first compound 0.3162 µM): 0.801
relative viability ([4]; first compound 1 µM): 0.515
relative viability ([5]; first compound 0.01 µM): 0.402
relative viability ([5]; first compound 0.03162 µM): 0.338
relative viability ([5]; first compound 0.1 µM): 0.422
relative viability ([5]; first compound 0.3162 µM): 0.392
relative viability ([5]; first compound 1 µM): 0.309
relative viability ([6]; first compound 0.01 µM): 0.534
relative viability ([6]; first compound 0.03162 µM): 0.593
relative viability ([6]; first compound 0.1 µM): 0.52
relative viability ([6]; first compound 0.3162 µM): 0.604
relative viability ([6]; first compound 1 µM): 0.486
relative viability ([7]; first compound 0.01 µM): 0.429
relative viability ([7]; first compound 0.03162 µM): 0.546
relative viability ([7]; first compound 0.1 µM): 0.525
relative viability ([7]; first compound 0.3162 µM): 0.421
relative viability ([7]; first compound 1 µM): 0.365
relative viability ([8]; first compound 0.01 µM): 0.817
relative viability ([8]; first compound 0.03162 µM): 0.408
relative viability ([8]; first compound 0.1 µM): 0.749
relative viability ([8]; first compound 0.3162 µM): 0.673
relative viability ([8]; first compound 1 µM): 0.586
relative viability ([9]; first compound 0.01 µM): 0.541
relative viability ([9]; first compound 0.03162 µM): 0.581
relative viability ([9]; first compound 0.1 µM): 0.601
relative viability ([9]; first compound 0.3162 µM): 0.326
relative viability ([9]; first compound 1 µM): 0.319
relative viability ([10]; first compound 0.01 µM): 0.896
relative viability ([10]; first compound 0.03162 µM): 0.708
relative viability ([10]; first compound 0.1 µM): 0.721
relative viability ([10]; first compound 0.3162 µM): 0.97
relative viability ([10]; first compound 1 µM): 0.869
relative viability ([11]; first compound 0.01 µM): 0.865
relative viability ([11]; first compound 0.03162 µM): 1.01
relative viability ([11]; first compound 0.1 µM): 1
relative viability ([11]; first compound 0.3162 µM): 0.953
relative viability ([11]; first compound 1 µM): 0.869
relative viability ([12]; first compound 0.01 µM): 0.737
relative viability ([12]; first compound 0.03162 µM): 0.622
relative viability ([12]; first compound 0.1 µM): 0.842
relative viability ([12]; first compound 0.3162 µM): 0.748
relative viability ([12]; first compound 1 µM): 0.684
relative viability ([13]; first compound 0.01 µM): 0.444
relative viability ([13]; first compound 0.03162 µM): 0.52
relative viability ([13]; first compound 0.1 µM): 0.593
relative viability ([13]; first compound 0.3162 µM): 0.64
relative viability ([13]; first compound 1 µM): 0.395
relative viability ([14]; first compound 0.01 µM): 0.772
relative viability ([14]; first compound 0.03162 µM): 0.831
relative viability ([14]; first compound 0.1 µM): 0.846
relative viability ([14]; first compound 0.3162 µM): 0.781
relative viability ([14]; first compound 1 µM): 0.88
relative viability ([15]; first compound 0.01 µM): 0.272
relative viability ([15]; first compound 0.03162 µM): 0.612
relative viability ([15]; first compound 0.1 µM): 0.495
relative viability ([15]; first compound 0.3162 µM): 0.476
relative viability ([15]; first compound 1 µM): 0.247
relative viability ([16]; first compound 0.01 µM): 0.734
relative viability ([16]; first compound 0.03162 µM): 0.956
relative viability ([16]; first compound 0.1 µM): 0.992
relative viability ([16]; first compound 0.3162 µM): 1.1
relative viability ([16]; first compound 1 µM): 0.76
